Test results from patent US20130150346A1, “Use of FAAH Inhibitors for Treating Parkinson's Disease and Restless Legs Syndrome” (Ironwood Pharmaceutical, Inc., priority 2010, published 2013).

Legend:
[1] = test system: FAAH; assay: Plasma FAAH substrate levels (AEA, OEA, PEA) by LC-MS/MS in MPTP-lesioned marmosets treated with URB597; assay type: in vivo, common marmosets (Callithrix jacchus)
Method: Six common marmosets (Callithrix jacchus; female; weight, 350-500 g (Harlan, Madison, Wis., USA)) were kept under conditions of controlled temperature (25±2° C.) and a 12-hour light/dark cycle (lights on 6:30 a.m.). Animals were group housed and had access to food, fresh-fruit supplements and water ad libitum and their home cage environment was enriched with primate toys, perches and auditory stimuli. Prior to start of studies, animals were acclimatized to handling, blood collection and administration of treatments (oral syringe feeding and subcutaneous injection) as well as transfer to observation cages for assessment of behavior. A parkinsonian syndrome was induced by once-daily subcutaneous administration of MPTP hydrochloride (Sigma, Canada; 2 mg/kg base concentration in 0.9% saline) for 5 consecutive days. Following this, animals were allowed to recover for 12 weeks to allow parkinsonian symptoms to develop and stabilize. […] Treatment-related complications including dyskinesia and psychosis-like behaviors were evoked by twice-daily treatment with L-DOPA p.o. (as Prolopa®, Roche Canada, Ontario, equivalent to 15 mg/kg L-DOPA and 3.5 mg/kg benserazide) for a minimum of 30 days. […] Disord. 21:839-846; Visanji et al. (2008) Mov. Disord. 23:1922-1925; Visanji et al (2009) Neurobiol Dis. 35: 184-192]. After this time, the animals were used in several studies to evaluate potential anti-parkinsonian and anti-dyskinetic agents. A minimum period of two weeks was allowed between completing any prior study and commencing this study, a period in excess of ten half-lives since administration of any previously employed experimental drug. Throughout the course of the study, on days not requiring plasma sampling or behavioral observations, animals were treated once daily with oral L-DOPA therapy, given at 10:00 a.m. to maintain stable levels of complications. Marmosets treated with MPTP as described in this example are referred to as MPTP-lesioned marmosets.
MPTP hydrochloride (Sigma, Canada) was dissolved in 0.9% NaCl sterile solution to a concentration of 0.2 mg/ml (freebase) and administered at 1 ml/kg. Maintenance L-DOPA, administered as Prolopa® capsules (Roche, Mississauga, ON, Canada) containing 50 mg L-DOPA and 12.5 mg benserazide (freebase) was dissolved in Gatorade sports beverage (The Gatorade Company, Chicago, Ill.) prior to oral administration by syringe at a volume of 10 ml/kg. On days of behavioral assessment, L-DOPA (20 mg/kg, freebase) was prepared from the methyl ester form (Sigma, Canada) in combination with benserazide hydrochloride (5 mg/kg, freebase, Sigma, Canada) dissolved in 0.9% sterile saline containing 0.1% ascorbate (Sigma, Canada) and 0.05% absolute ethanol. URB597 (Cayman Chemical, Ann Arbor, Mich.) was formulated in a vehicle containing 50% corn oil (Professional Compounding Centers of America (PCCA), Houston, Tex.) and 50% nutritional drink Ensure™ (Abbott Nutrition, Chicago, Ill.) to make the suspension palatable for marmoset oral dosing. Requisite amounts of URB597 were weighed into sterile 50 ml polypropylene tubes (for the 3, 10, 30 and 60 mg/kg doses, 12, 40, 120 and 240 mg were weighed respectively). Then, 10 ml Corn oil was added and mixed until homogenous. Next, 10 ml Ensure™ was added and the mixture mixed gently at first, vortexed and finally sonicated (Ultrasonic Dismembrator, Fisher Scientific model 100, ⅛″) on a medium setting for 30 sec to ensure homogeneity of the suspension. URB597 or vehicle was dosed orally at a volume of 5 ml/kg body weight.
The effect of oral treatment of MPTP-lesioned marmosets with either vehicle or URB597 (3, 10, 30 or 60 mg/kg) on plasma levels of specific endogenous FAAH substrates was assessed. Levels of the endocannabinoid AEA, in addition to the non-cannabinoid fatty acid amides N-palmitoyl-ethanolamide (PEA) and N-oleoyl-ethanolamide (OEA), were measured by LC-MS/MS assays (described below).

[2] = Plasma L-DOPA levels by LC-MS/MS in MPTP-lesioned marmosets; assay type: in vivo, common marmosets (Callithrix jacchus); conditions: URB597 10 mg/kg p.o., 2 h post L-DOPA, 4 h post URB597, p>0.05, paired t-test
Method: Six common marmosets (Callithrix jacchus; female; weight, 350-500 g (Harlan, Madison, Wis., USA)) were kept under conditions of controlled temperature (25±2° C.) and a 12-hour light/dark cycle (lights on 6:30 a.m.). Animals were group housed and had access to food, fresh-fruit supplements and water ad libitum and their home cage environment was enriched with primate toys, perches and auditory stimuli. Prior to start of studies, animals were acclimatized to handling, blood collection and administration of treatments (oral syringe feeding and subcutaneous injection) as well as transfer to observation cages for assessment of behavior. A parkinsonian syndrome was induced by once-daily subcutaneous administration of MPTP hydrochloride (Sigma, Canada; 2 mg/kg base concentration in 0.9% saline) for 5 consecutive days. Following this, animals were allowed to recover for 12 weeks to allow parkinsonian symptoms to develop and stabilize. […] Treatment-related complications including dyskinesia and psychosis-like behaviors were evoked by twice-daily treatment with L-DOPA p.o. (as Prolopa®, Roche Canada, Ontario, equivalent to 15 mg/kg L-DOPA and 3.5 mg/kg benserazide) for a minimum of 30 days. […]
The effect of oral treatment with either vehicle or URB597 (10 mg/kg) on plasma levels of L-DOPA was assessed at the beginning of the period of peak L-DOPA effect, i.e., 2 h after L-DOPA administration. […]

[3] = test system: MPTP-lesioned macaques; assay: Motor activity (total activity, high activity time and counts) in MPTP-lesioned macaques treated with URB597 and L-DOPA; assay type: in vivo, cynomolgus monkeys (Macaca fascicularis)
[4] = URB597 10 mg/kg p.o. (two doses), four hours after oral administration, mean±SEM, n=6
[5] = mean of the 4 doses studied (3, 10, 30, 60 mg/kg p.o.) ±SEM

NC(=O)c1cccc(-c2cccc(OC(=O)NC3CCCCC3)c2)c1 [URB597]
mean plasma level of AEA [1, 4]: 5.0 ± 0.45 ng/mL
mean plasma level of OEA [1, 4]: 7.7 ± 0.78 ng/mL
mean plasma level of PEA [1, 4]: 7.0 ± 0.27 ng/mL
FAAH inhibition suggested by fatty acid amide elevations (no dose response) ([1]; all four doses 3 mg/kg to 60 mg/kg p.o.): complete inhibition of FAAH at all dose levels studied
mean fold change of plasma AEA compared to vehicle treatment [1, 5]: 10.3±0.3 fold
mean fold change of plasma OEA compared to vehicle treatment [1, 5]: 7.8±0.2 fold
mean fold change of plasma PEA compared to vehicle treatment [1, 5]: 1.8±0.1 fold
effect of URB597 on plasma L-DOPA levels [2]: did not alter
total activity counts, high activity time and high activity counts compared to normal macaques ([3]; L-DOPA/URB597 (0.1 ml/kg as printed, i.v.), between 2 and 3 h after L-DOPA): significantly higher
total activity and high activity count compared to L-DOPA alone treatment ([3]; URB597 0.3 mg/ml (so in the source) i.v. + L-DOPA p.o., 2-3 h post L-DOPA, p<0.05): significantly lower
